Results reported in paper PMC3130898 (Molecular and biochemical parasitology, 2010).

Biological target: T1, Oligopeptidase B (OPB) (Leishmania major, UniProt Q4QHU7)
T1 sequence (Q4QHU7 1-731): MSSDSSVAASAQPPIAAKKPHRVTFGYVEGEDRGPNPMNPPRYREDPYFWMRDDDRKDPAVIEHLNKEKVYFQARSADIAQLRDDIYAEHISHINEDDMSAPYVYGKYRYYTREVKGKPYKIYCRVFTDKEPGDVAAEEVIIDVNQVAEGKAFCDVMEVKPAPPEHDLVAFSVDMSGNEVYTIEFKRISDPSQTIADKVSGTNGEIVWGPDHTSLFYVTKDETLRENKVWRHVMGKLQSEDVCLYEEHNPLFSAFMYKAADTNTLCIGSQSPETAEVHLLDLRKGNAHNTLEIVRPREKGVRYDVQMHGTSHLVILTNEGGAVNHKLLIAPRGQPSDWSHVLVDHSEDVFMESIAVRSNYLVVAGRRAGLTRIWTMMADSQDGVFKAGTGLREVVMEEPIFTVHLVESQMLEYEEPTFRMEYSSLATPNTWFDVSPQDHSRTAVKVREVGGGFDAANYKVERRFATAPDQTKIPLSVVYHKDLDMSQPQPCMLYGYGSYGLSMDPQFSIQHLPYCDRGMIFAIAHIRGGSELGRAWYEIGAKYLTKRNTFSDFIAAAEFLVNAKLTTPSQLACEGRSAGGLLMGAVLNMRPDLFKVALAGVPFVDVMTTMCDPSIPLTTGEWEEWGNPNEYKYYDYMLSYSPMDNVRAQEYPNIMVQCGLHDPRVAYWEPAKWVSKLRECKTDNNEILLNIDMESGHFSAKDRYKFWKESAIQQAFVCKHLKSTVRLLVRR
Experiment: inhibition of Bz-R-AMC cleavage in live promastigotes
Type: cell-based

Work on `NCCc1ccc(S(=O)(=O)F)cc1` [AEBSF] yielded an IC50 of 14.4 µM.
